Data: ChEMBL document CHEMBL4602676, “Discovery and Development of 3-(6-Chloropyridine-3-yloxymethyl)-2-azabicyclo[3.1.0]hexane Hydrochloride (SUVN-911): A Novel, Potent, Selective, and Orally Active Neuronal Nicotinic Acetylcholine α4β2 Receptor Antagonist for the Treatment of Depression” (J Med Chem, 2020)

Key:
[1] = Ratio of drug level in brain to plasma in Wistar rat at 10 ml/kg, po or 2 ml/kg, iv measured upto 24 hrs by LC-MS/MS analysis; format: ADME, organism-based; conditions: brain and plasma, read-out: BPR
[2] = biological target: T1, Neuronal acetylcholine receptor; alpha4/beta2 (Homo sapiens, UniProt P17787+P43681); experiment: Displacement of [3H]cytisine from human alpha4beta2 nAChR expressed in CHOK1 cell membrane by microbeta scintillation counting method; format: cell membranes, CHO-K1
[3] = biological target: T1, Neuronal acetylcholine receptor; alpha4/beta2; experiment: Antagonist activity at alpha4beta2 nAChR (unknown origin) expressed in HEK293 cells assessed as reduction in acetylcholine-induced currents at -80 mV holding potential by whole-cell patch clamp method; format: cell-based
[4] = Toxicity in telemetered Beagle dog assessed as change in body temperature up to 25 mg/kg, po; format: organism-based, Canis lupus familiaris; conditions: in vivo
[5] = Protein binding in dog plasma assessed as unbound fraction at […] incubated for 6 hrs by LC-MS/MS analysis; format: ADME, cell-free, Canis lupus familiaris
[6] = AUC (0 to t) in Beagle dog at 3 mg/kg, po by LC-MS/MS analysis; format: ADME, organism-based, Canis lupus familiaris; conditions: in vivo
[7] = test system: Lymphocyte; experiment: Genotoxicity in human peripheral lymphocytes assessed as non clastogenic by chromosomal aberration assay; format: toxicity, cell-based
[8] = Toxicity in telemetered Beagle dog assessed as change in heart rate up to 25 mg/kg, po; format: organism-based, Canis lupus familiaris; conditions: in vivo
[9] = biological target: Neuronal acetylcholine receptor; alpha4/beta2 (Rattus norvegicus, UniProt P09483+P12390); experiment: In vivo receptor occupancy at alpha4beta2 nAChR in Wistar rat assessed as plasma concentration pretreated for 15 mins followed by non radiolabelled ZW-104 tracer treatment and measured after 45 mins by LC-MS/MS analysis; format: functional, organism-based
[10] = test system: Caco-2; experiment: Ratio of apparent permeability across basolateral to apical over apical to basolateral side in human Caco2 cells; format: ADME, cell-based
[11] = Protein binding in rat plasma assessed as unbound fraction at […] incubated for 6 hrs by LC-MS/MS analysis; format: ADME, cell-free
[12] = biological target: T2, Solute carrier organic anion transporter family member 1B1 (Homo sapiens, UniProt Q9Y6L6); experiment: Inhibition of OATP1B1 (unknown origin)
T2 sequence (Q9Y6L6 whole entry): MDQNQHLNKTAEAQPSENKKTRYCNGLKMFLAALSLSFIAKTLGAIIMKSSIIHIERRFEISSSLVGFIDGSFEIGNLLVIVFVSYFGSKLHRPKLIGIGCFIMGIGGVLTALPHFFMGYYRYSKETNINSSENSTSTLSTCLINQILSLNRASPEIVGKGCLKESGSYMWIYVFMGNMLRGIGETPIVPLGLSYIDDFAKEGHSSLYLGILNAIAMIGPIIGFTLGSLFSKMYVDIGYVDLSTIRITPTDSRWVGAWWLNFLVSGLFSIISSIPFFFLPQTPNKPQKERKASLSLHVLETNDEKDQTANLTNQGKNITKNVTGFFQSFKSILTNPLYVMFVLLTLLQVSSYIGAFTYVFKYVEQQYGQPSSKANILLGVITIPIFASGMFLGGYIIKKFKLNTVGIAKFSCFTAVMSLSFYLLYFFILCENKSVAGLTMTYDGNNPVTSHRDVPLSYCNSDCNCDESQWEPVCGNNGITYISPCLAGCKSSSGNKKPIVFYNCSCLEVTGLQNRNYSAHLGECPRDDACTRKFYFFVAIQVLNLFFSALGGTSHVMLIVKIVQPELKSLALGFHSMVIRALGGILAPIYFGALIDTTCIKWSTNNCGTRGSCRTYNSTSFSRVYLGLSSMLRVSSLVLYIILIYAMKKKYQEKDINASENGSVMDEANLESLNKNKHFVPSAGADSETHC

[13] = biological target: Neuronal acetylcholine receptor; alpha3/beta4 (Homo sapiens, UniProt P30926+P32297); experiment: Displacement of [3H]epibatidine from human alpha3beta4 nAChR expressed in IMR32 cell membrane by microbeta scintillation counting method; format: cell membranes, IMR-32
[14] = Genotoxicity in Salmonella typhimurium TA100 in presence of metabolic activation; format: toxicity; conditions: salmonella enterica subsp. enterica serovar typhimurium
[15] = test system: Rattus norvegicus; experiment: Antidepressant activity in Wistar rat assessed as immobility time at 10.0 mg/kg, po measured for 5 mins by forced swim test (reference value: 241.9 to 281.6 sec); format: functional
[16] = Genotoxicity in Salmonella typhimurium TA1537 in absence of metabolic activation; format: toxicity; conditions: salmonella enterica subsp. enterica serovar typhimurium
[17] = test system: Rattus norvegicus; experiment: Antidepressant activity in Wistar rat assessed as reduction in immobility at 10 mg/kg, po administrated for 3 days and measured for 5 mins by forced swim test relative to control; format: functional; design: scale not given: the % may be the effect or the level left
[18] = Genotoxicity in Salmonella typhimurium TA98 in presence of metabolic activation; format: toxicity; conditions: salmonella enterica subsp. enterica serovar typhimurium

T1 sequence (P17787 whole entry): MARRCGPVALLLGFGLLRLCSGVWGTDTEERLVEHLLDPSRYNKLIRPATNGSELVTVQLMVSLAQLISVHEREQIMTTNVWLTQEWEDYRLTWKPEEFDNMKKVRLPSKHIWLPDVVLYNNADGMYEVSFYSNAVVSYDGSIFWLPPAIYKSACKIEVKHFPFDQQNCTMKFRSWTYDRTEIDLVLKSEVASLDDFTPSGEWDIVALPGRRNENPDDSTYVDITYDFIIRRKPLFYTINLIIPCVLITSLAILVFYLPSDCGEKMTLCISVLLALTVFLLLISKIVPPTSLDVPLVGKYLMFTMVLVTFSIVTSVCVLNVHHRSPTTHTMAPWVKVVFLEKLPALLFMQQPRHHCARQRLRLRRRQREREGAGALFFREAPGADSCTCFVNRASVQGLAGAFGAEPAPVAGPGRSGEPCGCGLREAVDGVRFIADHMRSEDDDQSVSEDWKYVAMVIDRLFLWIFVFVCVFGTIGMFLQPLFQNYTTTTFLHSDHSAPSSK
T1 sequence (P43681 whole entry): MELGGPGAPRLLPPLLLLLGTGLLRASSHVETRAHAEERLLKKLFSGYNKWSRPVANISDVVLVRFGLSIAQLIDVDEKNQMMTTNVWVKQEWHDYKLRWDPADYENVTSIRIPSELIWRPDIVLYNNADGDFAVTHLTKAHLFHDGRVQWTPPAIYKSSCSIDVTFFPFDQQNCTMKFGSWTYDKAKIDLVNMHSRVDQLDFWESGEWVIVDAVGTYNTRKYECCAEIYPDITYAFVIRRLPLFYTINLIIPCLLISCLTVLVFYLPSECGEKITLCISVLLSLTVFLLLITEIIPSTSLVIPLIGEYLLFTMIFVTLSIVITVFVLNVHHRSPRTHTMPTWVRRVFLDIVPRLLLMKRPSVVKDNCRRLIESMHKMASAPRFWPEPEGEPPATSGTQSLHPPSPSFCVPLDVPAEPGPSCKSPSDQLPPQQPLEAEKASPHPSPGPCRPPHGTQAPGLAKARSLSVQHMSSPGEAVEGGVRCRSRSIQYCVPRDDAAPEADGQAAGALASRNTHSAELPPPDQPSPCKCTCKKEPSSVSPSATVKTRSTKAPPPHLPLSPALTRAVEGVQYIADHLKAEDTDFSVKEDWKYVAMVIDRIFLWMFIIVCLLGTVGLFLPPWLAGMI
Sequence of Neuronal acetylcholine receptor; alpha3/beta4 (P30926 whole entry): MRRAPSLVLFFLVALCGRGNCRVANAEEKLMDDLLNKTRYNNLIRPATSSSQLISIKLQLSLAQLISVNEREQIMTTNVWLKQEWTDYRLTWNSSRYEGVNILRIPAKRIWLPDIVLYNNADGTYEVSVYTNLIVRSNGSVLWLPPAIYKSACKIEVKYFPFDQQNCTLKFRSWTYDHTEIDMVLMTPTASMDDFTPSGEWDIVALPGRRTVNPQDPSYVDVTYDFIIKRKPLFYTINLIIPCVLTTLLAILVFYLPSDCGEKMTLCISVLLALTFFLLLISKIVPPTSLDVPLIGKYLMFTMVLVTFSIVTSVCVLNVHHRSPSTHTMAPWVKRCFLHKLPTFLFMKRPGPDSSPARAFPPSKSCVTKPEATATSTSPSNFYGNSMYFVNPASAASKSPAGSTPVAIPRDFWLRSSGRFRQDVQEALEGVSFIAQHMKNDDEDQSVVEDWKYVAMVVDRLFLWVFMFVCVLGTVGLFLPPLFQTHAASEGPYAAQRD
Sequence of Neuronal acetylcholine receptor; alpha3/beta4 (P32297 whole entry): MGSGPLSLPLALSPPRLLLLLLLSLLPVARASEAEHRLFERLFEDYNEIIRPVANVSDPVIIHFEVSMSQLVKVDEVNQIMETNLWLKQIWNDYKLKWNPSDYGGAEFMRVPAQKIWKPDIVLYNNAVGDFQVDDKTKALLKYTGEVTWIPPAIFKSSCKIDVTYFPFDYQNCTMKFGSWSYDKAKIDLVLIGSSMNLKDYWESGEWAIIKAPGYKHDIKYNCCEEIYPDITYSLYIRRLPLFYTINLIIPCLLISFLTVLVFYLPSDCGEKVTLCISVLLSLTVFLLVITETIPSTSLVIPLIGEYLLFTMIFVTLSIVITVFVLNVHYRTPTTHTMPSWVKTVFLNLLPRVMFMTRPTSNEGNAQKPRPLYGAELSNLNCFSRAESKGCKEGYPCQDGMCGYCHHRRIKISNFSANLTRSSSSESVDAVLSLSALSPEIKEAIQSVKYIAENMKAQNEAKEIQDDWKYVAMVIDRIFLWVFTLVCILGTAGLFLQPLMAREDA
Sequence of Neuronal acetylcholine receptor; alpha4/beta2 (Rattus norvegicus, UniProt P09483+P12390) (P09483 whole entry): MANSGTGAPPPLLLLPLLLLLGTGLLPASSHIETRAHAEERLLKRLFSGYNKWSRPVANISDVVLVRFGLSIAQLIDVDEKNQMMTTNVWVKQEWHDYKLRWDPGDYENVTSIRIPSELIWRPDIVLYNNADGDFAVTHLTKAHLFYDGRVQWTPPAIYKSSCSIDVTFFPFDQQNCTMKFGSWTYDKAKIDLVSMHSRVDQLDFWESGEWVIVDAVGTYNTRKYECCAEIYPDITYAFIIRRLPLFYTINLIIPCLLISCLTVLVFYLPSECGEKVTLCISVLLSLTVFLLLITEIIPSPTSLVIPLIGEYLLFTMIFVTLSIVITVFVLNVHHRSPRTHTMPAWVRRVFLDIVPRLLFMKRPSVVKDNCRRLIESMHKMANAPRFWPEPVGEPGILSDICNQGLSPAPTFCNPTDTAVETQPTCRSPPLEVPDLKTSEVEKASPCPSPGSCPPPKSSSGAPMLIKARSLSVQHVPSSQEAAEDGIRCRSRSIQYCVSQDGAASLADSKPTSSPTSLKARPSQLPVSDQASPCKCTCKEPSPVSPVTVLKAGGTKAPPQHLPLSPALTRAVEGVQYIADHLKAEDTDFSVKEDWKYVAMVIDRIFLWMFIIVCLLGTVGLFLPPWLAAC
Sequence of Neuronal acetylcholine receptor; alpha4/beta2 (Rattus norvegicus, UniProt P09483+P12390) (P12390 whole entry): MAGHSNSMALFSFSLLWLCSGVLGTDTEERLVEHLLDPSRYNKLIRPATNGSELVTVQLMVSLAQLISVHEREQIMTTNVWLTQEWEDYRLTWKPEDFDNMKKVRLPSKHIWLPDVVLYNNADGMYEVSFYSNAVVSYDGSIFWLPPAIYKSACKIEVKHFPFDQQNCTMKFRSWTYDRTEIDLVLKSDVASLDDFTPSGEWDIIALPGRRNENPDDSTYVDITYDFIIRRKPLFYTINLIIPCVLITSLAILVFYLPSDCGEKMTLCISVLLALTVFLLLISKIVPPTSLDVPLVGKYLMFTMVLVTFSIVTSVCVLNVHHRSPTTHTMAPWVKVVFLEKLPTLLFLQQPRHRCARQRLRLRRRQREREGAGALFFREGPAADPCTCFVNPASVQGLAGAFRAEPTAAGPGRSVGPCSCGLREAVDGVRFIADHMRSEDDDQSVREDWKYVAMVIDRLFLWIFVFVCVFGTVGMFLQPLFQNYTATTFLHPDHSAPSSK

**Q.** What does the source list for `Cl.Clc1ccc(OC[C@@H]2C[C@H]3C[C@H]3N2)cn1`?
**A.** Kp at 24 h [1]: 2.34; Ki [2]: 0.0015 µM; IC50 [3]: 7.31 µM; Activity [4]: Non-Toxic; fraction unbound at 6 h [5]: 0.31; AUC(0-t) [6]: 4350 ng·h/mL; Activity [7]: Non-Toxic; Activity [8]: Non-Toxic; EC50 [9]: 259 µM; Ratio [10]: 0.7; fraction unbound at 6 h [11]: 0.31; inhibition (INH) [12]: Not Active; Ki [13]: > 10 µM; Activity [14]: Non-Toxic; Time [15]: 81.5 s; Activity [16]: Non-Toxic; Activity [17]: 66.4%; Activity [18]: Non-Toxic
